Where “and” joins values, the source holds several entries; their conditions need not be identical. Equal values may be shown once.
Experiment: molar heat capacity at constant pressure; xn = mol fraction of the nth substance listed
Details: 100 kPa

[Si] [silicon] + [Li]
Details | molar heat capacity at constant pressure
12.56 K, Crystal of intercomponent compound 2, relaxation calorimeter, x2 = 0.804 | 0.0482 J/K/mol and 0.0474 J/K/mol
13.23 K, Crystal of intercomponent compound 1, relaxation calorimetry, x2 = 0.81 | 0.0671 J/K/mol
13.23 K, Crystal of intercomponent compound 2, relaxation calorimeter, x2 = 0.804 | 0.0553 J/K/mol
13.24 K, Crystal of intercomponent compound 2, relaxation calorimeter, x2 = 0.804 | 0.0547 J/K/mol
13.94 K, Crystal of intercomponent compound 1, relaxation calorimetry, x2 = 0.81 | 0.0741 J/K/mol
13.94 K, Crystal of intercomponent compound 2, relaxation calorimeter, x2 = 0.804 | 0.0639 J/K/mol
13.95 K, Crystal of intercomponent compound 2, relaxation calorimeter, x2 = 0.804 | 0.0628 J/K/mol
14.69 K, Crystal of intercomponent compound 1, relaxation calorimetry, x2 = 0.81 | 0.083 J/K/mol
14.69 K, Crystal of intercomponent compound 2, relaxation calorimeter, x2 = 0.804 | 0.0753 J/K/mol and 0.0743 J/K/mol
15 K, Crystal of intercomponent compound 1, relaxation calorimetry + DSC, x2 = 0.81 | 0.0895 J/K/mol
15 K, Crystal of intercomponent compound 2, relaxation calorimetry + DSC, x2 = 0.804 | 0.0803 J/K/mol
15.47 K, Crystal of intercomponent compound 1, relaxation calorimetry, x2 = 0.81 | 0.094 J/K/mol
15.47 K, Crystal of intercomponent compound 2, relaxation calorimeter, x2 = 0.804 | 0.0889 J/K/mol
15.48 K, Crystal of intercomponent compound 2, relaxation calorimeter, x2 = 0.804 | 0.0879 J/K/mol
16.3 K, Crystal of intercomponent compound 1, relaxation calorimetry, x2 = 0.81 | 0.1071 J/K/mol
16.3 K, Crystal of intercomponent compound 2, relaxation calorimeter, x2 = 0.804 | 0.1049 J/K/mol
16.31 K, Crystal of intercomponent compound 2, relaxation calorimeter, x2 = 0.804 | 0.1039 J/K/mol
17.17 K, Crystal of intercomponent compound 1, relaxation calorimetry, x2 = 0.81 | 0.1224 J/K/mol
17.18 K, Crystal of intercomponent compound 2, relaxation calorimeter, x2 = 0.804 | 0.1233 J/K/mol and 0.1231 J/K/mol
18.09 K, Crystal of intercomponent compound 1, relaxation calorimetry, x2 = 0.81 | 0.1403 J/K/mol
18.09 K, Crystal of intercomponent compound 2, relaxation calorimeter, x2 = 0.804 | 0.1454 J/K/mol
18.1 K, Crystal of intercomponent compound 2, relaxation calorimeter, x2 = 0.804 | 0.1461 J/K/mol
19.06 K, Crystal of intercomponent compound 1, relaxation calorimetry, x2 = 0.81 | 0.1618 J/K/mol
19.07 K, Crystal of intercomponent compound 2, relaxation calorimeter, x2 = 0.804 | 0.1725 J/K/mol and 0.1731 J/K/mol
20 K, Crystal of intercomponent compound 1, relaxation calorimetry + DSC, x2 = 0.81 | 0.184 J/K/mol
20 K, Crystal of intercomponent compound 2, relaxation calorimetry + DSC, x2 = 0.804 | 0.201 J/K/mol
20.09 K, Crystal of intercomponent compound 1, relaxation calorimetry, x2 = 0.81 | 0.187 J/K/mol
20.09 K, Crystal of intercomponent compound 2, relaxation calorimeter, x2 = 0.804 | 0.205 J/K/mol
20.1 K, Crystal of intercomponent compound 2, relaxation calorimeter, x2 = 0.804 | 0.203 J/K/mol
21.16 K, Crystal of intercomponent compound 1, relaxation calorimetry, x2 = 0.81 | 0.219 J/K/mol
21.16 K, Crystal of intercomponent compound 2, relaxation calorimeter, x2 = 0.804 | 0.24 J/K/mol
21.17 K, Crystal of intercomponent compound 2, relaxation calorimeter, x2 = 0.804 | 0.242 J/K/mol
22.28 K, Crystal of intercomponent compound 1, relaxation calorimetry, x2 = 0.81 | 0.255 J/K/mol
22.3 K, Crystal of intercomponent compound 2, relaxation calorimeter, x2 = 0.804 | 0.283 J/K/mol and 0.286 J/K/mol
23.49 K, Crystal of intercomponent compound 2, relaxation calorimeter, x2 = 0.804 | 0.333 J/K/mol and 0.337 J/K/mol
23.51 K, Crystal of intercomponent compound 1, relaxation calorimetry, x2 = 0.81 | 0.297 J/K/mol
24.74 K, Crystal of intercomponent compound 1, relaxation calorimetry, x2 = 0.81 | 0.331 J/K/mol
24.75 K, Crystal of intercomponent compound 2, relaxation calorimeter, x2 = 0.804 | 0.391 J/K/mol and 0.396 J/K/mol
25 K, Crystal of intercomponent compound 1, relaxation calorimetry + DSC, x2 = 0.81 | 0.347 J/K/mol
25 K, Crystal of intercomponent compound 2, relaxation calorimetry + DSC, x2 = 0.804 | 0.403 J/K/mol
26.07 K, Crystal of intercomponent compound 2, relaxation calorimeter, x2 = 0.804 | 0.458 J/K/mol and 0.454 J/K/mol
26.08 K, Crystal of intercomponent compound 1, relaxation calorimetry, x2 = 0.81 | 0.39 J/K/mol
27.47 K, Crystal of intercomponent compound 2, relaxation calorimeter, x2 = 0.804 | 0.534 J/K/mol
27.48 K, Crystal of intercomponent compound 1, relaxation calorimetry, x2 = 0.81 | 0.457 J/K/mol
27.48 K, Crystal of intercomponent compound 2, relaxation calorimeter, x2 = 0.804 | 0.531 J/K/mol
28.94 K, Crystal of intercomponent compound 2, relaxation calorimeter, x2 = 0.804 | 0.623 J/K/mol
28.95 K, Crystal of intercomponent compound 1, relaxation calorimetry, x2 = 0.81 | 0.534 J/K/mol
28.95 K, Crystal of intercomponent compound 2, relaxation calorimeter, x2 = 0.804 | 0.619 J/K/mol
30 K, Crystal of intercomponent compound 1, relaxation calorimetry + DSC, x2 = 0.81 | 0.596 J/K/mol
30 K, Crystal of intercomponent compound 2, relaxation calorimetry + DSC, x2 = 0.804 | 0.689 J/K/mol
30.48 K, Crystal of intercomponent compound 2, relaxation calorimeter, x2 = 0.804 | 0.723 J/K/mol
30.49 K, Crystal of intercomponent compound 1, relaxation calorimetry, x2 = 0.81 | 0.625 J/K/mol
30.5 K, Crystal of intercomponent compound 2, relaxation calorimeter, x2 = 0.804 | 0.718 J/K/mol
32.11 K, Crystal of intercomponent compound 2, relaxation calorimeter, x2 = 0.804 | 0.835 J/K/mol
32.12 K, Crystal of intercomponent compound 1, relaxation calorimetry, x2 = 0.81 | 0.728 J/K/mol
32.12 K, Crystal of intercomponent compound 2, relaxation calorimeter, x2 = 0.804 | 0.832 J/K/mol
33.83 K, Crystal of intercomponent compound 2, relaxation calorimeter, x2 = 0.804 | 0.964 J/K/mol
33.84 K, Crystal of intercomponent compound 1, relaxation calorimetry, x2 = 0.81 | 0.848 J/K/mol
33.84 K, Crystal of intercomponent compound 2, relaxation calorimeter, x2 = 0.804 | 0.961 J/K/mol
35 K, Crystal of intercomponent compound 1, relaxation calorimetry + DSC, x2 = 0.81 | 0.934 J/K/mol
35 K, Crystal of intercomponent compound 2, relaxation calorimetry + DSC, x2 = 0.804 | 1.056 J/K/mol
35.64 K, Crystal of intercomponent compound 2, relaxation calorimeter, x2 = 0.804 | 1.113 J/K/mol
35.65 K, Crystal of intercomponent compound 2, relaxation calorimeter, x2 = 0.804 | 1.109 J/K/mol
35.66 K, Crystal of intercomponent compound 1, relaxation calorimetry, x2 = 0.81 | 0.987 J/K/mol
37.54 K, Crystal of intercomponent compound 2, relaxation calorimeter, x2 = 0.804 | 1.278 J/K/mol
37.56 K, Crystal of intercomponent compound 1, relaxation calorimetry, x2 = 0.81 | 1.143 J/K/mol
37.56 K, Crystal of intercomponent compound 2, relaxation calorimeter, x2 = 0.804 | 1.272 J/K/mol
39.55 K, Crystal of intercomponent compound 2, relaxation calorimeter, x2 = 0.804 | 1.458 J/K/mol
39.56 K, Crystal of intercomponent compound 1, relaxation calorimetry, x2 = 0.81 | 1.315 J/K/mol
39.57 K, Crystal of intercomponent compound 2, relaxation calorimeter, x2 = 0.804 | 1.455 J/K/mol
40 K, Crystal of intercomponent compound 1, relaxation calorimetry + DSC, x2 = 0.81 | 1.35 J/K/mol
40 K, Crystal of intercomponent compound 2, relaxation calorimetry + DSC, x2 = 0.804 | 1.5 J/K/mol
41.66 K, Crystal of intercomponent compound 2, relaxation calorimeter, x2 = 0.804 | 1.664 J/K/mol
41.67 K, Crystal of intercomponent compound 1, relaxation calorimetry, x2 = 0.81 | 1.513 J/K/mol
41.68 K, Crystal of intercomponent compound 2, relaxation calorimeter, x2 = 0.804 | 1.659 J/K/mol
43.88 K, Crystal of intercomponent compound 1, relaxation calorimetry, x2 = 0.81 | 1.731 J/K/mol
43.89 K, Crystal of intercomponent compound 2, relaxation calorimeter, x2 = 0.804 | 1.888 J/K/mol
43.9 K, Crystal of intercomponent compound 2, relaxation calorimeter, x2 = 0.804 | 1.888 J/K/mol
45 K, Crystal of intercomponent compound 1, relaxation calorimetry + DSC, x2 = 0.81 | 1.85 J/K/mol
45 K, Crystal of intercomponent compound 2, relaxation calorimetry + DSC, x2 = 0.804 | 2.01 J/K/mol
46.22 K, Crystal of intercomponent compound 1, relaxation calorimetry, x2 = 0.81 | 1.98 J/K/mol
